Holding throughout (type): cell-based
Test [1] deals with T1, Casein kinase II subunit alpha' (Homo sapiens, UniProt P19784). Kind of test: Displacement of fluorescent tracer from full-length human C-terminal NanoLuc-tagged CK2alpha' expressed in HEK293T permeabilized cells measured after 2 hrs by NanoBRET assay.
Test [2] concerns the target T1, Casein kinase II subunit alpha'. Description: Displacement of fluorescent tracer from full-length human C-terminal NanoLuc-tagged CK2alpha' expressed in HEK293T cells measured after 2 hrs by NanoBRET assay.
The target in test [3] is T2, Casein kinase II subunit alpha (Homo sapiens, UniProt P68400). Description: Displacement of fluorescent tracer from full-length human C-terminal NanoLuc-tagged CK2alpha expressed in HEK293T cells measured after 2 hrs by NanoBRET assay.
T2 sequence (P68400 whole entry): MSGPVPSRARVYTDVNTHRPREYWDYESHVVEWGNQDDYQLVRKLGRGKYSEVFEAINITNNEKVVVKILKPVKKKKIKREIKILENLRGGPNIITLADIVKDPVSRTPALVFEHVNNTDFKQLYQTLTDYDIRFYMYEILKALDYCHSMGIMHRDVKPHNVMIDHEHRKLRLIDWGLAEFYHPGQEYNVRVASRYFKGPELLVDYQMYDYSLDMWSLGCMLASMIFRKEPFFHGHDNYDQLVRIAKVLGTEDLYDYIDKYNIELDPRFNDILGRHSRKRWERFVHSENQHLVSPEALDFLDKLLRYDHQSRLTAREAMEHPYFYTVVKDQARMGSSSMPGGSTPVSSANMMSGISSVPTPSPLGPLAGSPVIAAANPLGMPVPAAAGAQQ
Test [4] deals with T2, Casein kinase II subunit alpha. Description: Displacement of fluorescent tracer from full-length human C-terminal NanoLuc-tagged CK2alpha expressed in HEK293T permeabilized cells measured after 2 hrs by NanoBRET assay.

Bounds are passed on as bounds.

T1 sequence (P19784 whole entry): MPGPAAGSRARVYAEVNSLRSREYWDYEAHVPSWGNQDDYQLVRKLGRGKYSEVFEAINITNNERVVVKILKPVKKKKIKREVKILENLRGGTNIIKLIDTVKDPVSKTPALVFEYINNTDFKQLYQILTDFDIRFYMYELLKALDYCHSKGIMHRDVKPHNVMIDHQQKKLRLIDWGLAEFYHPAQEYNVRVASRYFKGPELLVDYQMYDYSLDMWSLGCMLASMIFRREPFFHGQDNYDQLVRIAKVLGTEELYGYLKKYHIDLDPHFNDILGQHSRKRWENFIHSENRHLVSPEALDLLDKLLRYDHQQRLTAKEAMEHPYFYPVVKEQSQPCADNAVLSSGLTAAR

`CC(C)(C)OC(=O)N1CCOCCOc2cc(ccc2C(=O)O)-c2cnn3ccc1nc23`: the IC50 in test [1] stood at 0.771 µM.
For `COC(=O)c1ccc2cc1OCCOCCNc1ccn3ncc-2c3n1`, the IC50 is over 50 µM in test [2], over 50 µM in test [3], over 50 µM in test [1] and 13.2 µM in test [4].

The record behind these values is ChEMBL document CHEMBL4706554 (Eur J Med Chem, 2020).
